This is an account of results in patent US4978761A, “5-hydroxy-2-substituted-2,4,6,7-tetramethyl-2,3-dihydrobenzofurans” (Takeda Chemical Industries, Ltd., priority 1988, dated 1990).

A word on the inhibition: it is the percentage by which the read-out fell short of the control.

One test has as its target T1, 5-Lipoxygenase (Rattus norvegicus, UniProt P12527).
T1 construct: endogenous in cells; host or cells: RBL-1 (rat basophilic leukemia) cells
T1 sequence (P12527 1-673): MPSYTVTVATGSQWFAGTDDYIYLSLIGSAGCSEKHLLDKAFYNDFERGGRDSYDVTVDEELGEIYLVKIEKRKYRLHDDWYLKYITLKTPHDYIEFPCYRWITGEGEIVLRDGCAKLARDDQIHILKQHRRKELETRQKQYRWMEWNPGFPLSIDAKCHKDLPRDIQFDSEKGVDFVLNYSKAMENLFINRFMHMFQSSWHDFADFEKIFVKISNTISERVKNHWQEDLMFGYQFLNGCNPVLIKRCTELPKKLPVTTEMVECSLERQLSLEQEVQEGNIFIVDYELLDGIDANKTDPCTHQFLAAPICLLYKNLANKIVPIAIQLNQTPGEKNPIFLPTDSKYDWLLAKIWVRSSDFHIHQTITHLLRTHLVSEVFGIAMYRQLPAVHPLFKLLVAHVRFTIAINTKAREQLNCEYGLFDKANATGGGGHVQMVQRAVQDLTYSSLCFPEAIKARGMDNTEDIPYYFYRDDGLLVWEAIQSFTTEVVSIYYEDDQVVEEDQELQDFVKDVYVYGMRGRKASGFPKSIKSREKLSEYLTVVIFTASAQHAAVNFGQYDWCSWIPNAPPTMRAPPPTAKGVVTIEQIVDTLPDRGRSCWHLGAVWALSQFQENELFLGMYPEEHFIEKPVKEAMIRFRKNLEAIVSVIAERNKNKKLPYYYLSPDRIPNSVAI
As to the kind of experiment: 5-Lipoxygenase inhibiting action: 5-HETE production in rat basophilic leukemia (RBL-1) cells (HPLC). It is filed as cell-based. The note with it: read-out: Effect of Inhibiting 5-Lipoxygenase, % Inhibition (IE). How it is done: In 0.5 ml of MCM (mast cell medium) was suspended 10^7 of rat basophilic leukemia (RBL-1) cells. To this suspension was added the test solution previously prepared [consisting of 0.5 ml of MCM, 50 μg of arachidonic acid, 10 μg of calcium ionophore A-23187 and the test compound (final concentrations 10 μm, 1 μm, 0.1 μm and 0.01 μm)], and the reaction was allowed to proceed at 37° C. for 20 minutes. To the reaction mixture was added 4 ml of ethanol, which was shaken sufficiently, followed by leaving the resultant mixture standing for 10 minutes at room temperatures. The resultant mixture was subjected to a centrifuge (2000 rpm) for 10 minutes, then the supernatant was separated. Thus-separated supernatant was concentrated to dryness under reduced pressure. To the concentrate was added 0.5 ml of a 60% aqueous methanol. A 100μl Portion of this solution was taken and subjected to high performance liquid chromatography to perform quantitative determination of 5-HETE (5-hydroxyeicosatetraenoic acid). UV absorption of 5-HETE at 237 nm was measured with a UV absorption monitor. The inhibitory effect (IE) of 5-HETE is expressed by (1-b/a)×100. In this formula, a means the height of the peak or the area of the peak in the case of presence of no compound (I), while b means the height of the peak or the area of the peak in the case of presence of the compound (I).

The target of the next test is T2, 12-Lipoxygenase (Rattus norvegicus, UniProt F1LQ70).
T2 construct: from tissue; host or cells: Wistar rat platelets (PRP mixed with PPP, from citrated aortic blood)
T2 sequence (F1LQ70 1-663): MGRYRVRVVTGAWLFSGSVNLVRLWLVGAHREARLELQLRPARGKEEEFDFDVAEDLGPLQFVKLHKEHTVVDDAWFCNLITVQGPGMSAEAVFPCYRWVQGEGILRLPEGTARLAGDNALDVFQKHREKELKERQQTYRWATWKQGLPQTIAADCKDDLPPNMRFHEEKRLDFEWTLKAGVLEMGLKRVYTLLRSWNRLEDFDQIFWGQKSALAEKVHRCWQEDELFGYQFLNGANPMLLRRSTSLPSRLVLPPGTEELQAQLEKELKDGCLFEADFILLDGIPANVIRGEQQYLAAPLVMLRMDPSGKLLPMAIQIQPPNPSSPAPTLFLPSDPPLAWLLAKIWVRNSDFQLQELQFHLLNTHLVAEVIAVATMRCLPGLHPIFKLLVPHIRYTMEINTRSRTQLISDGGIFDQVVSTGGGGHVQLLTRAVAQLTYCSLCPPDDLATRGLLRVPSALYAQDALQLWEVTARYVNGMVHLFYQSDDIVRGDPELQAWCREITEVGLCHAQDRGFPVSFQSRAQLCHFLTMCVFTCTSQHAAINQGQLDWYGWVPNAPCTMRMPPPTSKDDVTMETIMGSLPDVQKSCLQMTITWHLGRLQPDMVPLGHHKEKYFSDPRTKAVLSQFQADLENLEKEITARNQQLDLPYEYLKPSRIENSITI
As to the kind of experiment: 12-Lipoxygenase inhibitory action: 12-HETE production in Wistar rat platelets (HPLC). Type of test: cell-based. The note with it: read-out: 12-Lipoxygenase Inhibitory Action, % Inhibition (IE); for inhibition at 100 µM: 10^-4 M; for inhibition at 10 µM: 10^-5 M; for inhibition at 1 µM: 10^-6 M; for inhibition at 0.1 µM: 10^-7 M. How it is done: Through the descending aorta of a Wistar rat, 10 ml of blood was collected, under anesthesia, together with citric acid of a volume corresponding to 10%. PRP and PPP were respectively prepared, then they were mixed to make the number of platelets to be 10^9 /ml. To 2.5 μl each of the test solutions prepared in advance (final concentrations of the test compounds : 100 μm, 10 μm, 1 μm and 0.1 μm) was added 0.225 ml of the platelet solution. The respective solutions were kept at 37° C. for 5 minutes, to which was added 25 μl each of arachidonic acid solution (50 μg/ml) , then the respective mixtures were shaken immediately. The reaction was allowed to proceed at 37° C. for 15 minutes, and there was added ethanol (1 ml) to stop the reaction. The reaction mixture was subjected to a centrifuge (2000 rpm) for 5 minutes. One ml of the supernatant was taken, which was mixed with 1 ml of water. 100 μl of this mixture solution was subjected to high performance liquid chromatography to quantitatively determine 12-HETE. The detection was conducted at 240 nm. The calculation of the inhibition rate was conducted in a manner as in the case of 5-HETE.

Consider `Cc1c(C)c2c(c(C)c1O)CC(C)(CC#N)O2` (stereo not shown) [Compound 5, 5-hydroxy-2-cyanomethyl-2,4,6,7-tetramethyl-2,3-dihydrobenzofuran], for which the inhibition at 10 µM on 5-Lipoxygenase (10^-5 M) was 100%. Besides, the inhibition at 1 µM on 5-Lipoxygenase (10^-6 M) amounted to 100%. In addition, on 5-Lipoxygenase (10^-7 M), the inhibition at 0.1 µM was found to be 57%. On 5-Lipoxygenase (10^-8 M), the inhibition at 0.01 µM was found to be 0%. Besides, at 12-Lipoxygenase, the inhibition at 100 µM was 97%, the inhibition at 10 µM turned out to be 78% and the inhibition at 1 µM is 14%.
As for `Cc1c(C)c2c(c(C)c1O)CC(C)(/C=C\Cc1ccccc1)O2` (stereo not shown) [Compound 15], on 12-Lipoxygenase, the inhibition at 100 µM was determined as 100%, the inhibition at 10 µM amounted to 100%, the inhibition at 1 µM worked out at 99% and the inhibition at 0.1 µM turned out to be 25%.
Regarding `Cc1c(C)c2c(c(C)c1O)CC(C)(/C=C/Cc1ccccc1)O2` (stereo not shown) [Compound 17], on 12-Lipoxygenase, the inhibition at 100 µM was 100%, the inhibition at 10 µM came to 99%, the inhibition at 1 µM stood at 98% and the inhibition at 0.1 µM is 22%.
On to `Cc1c(C)c2c(c(C)c1O)CC(C)(/C=C/c1ccccc1)O2` (stereo not shown) [Compound 18], for which, at 12-Lipoxygenase, the inhibition at 100 µM is 100%, the inhibition at 10 µM was determined as 100%, the inhibition at 1 µM was found to be 89% and the inhibition at 0.1 µM was 18%.
`Cc1c(C)c2c(c(C)c1O)CC(C)(CCCc1ccccc1)O2` (stereo not shown) [Compound 20]: at 12-Lipoxygenase, the inhibition at 100 µM turned out to be 100%, the inhibition at 10 µM was determined as 99%, the inhibition at 1 µM came out at 97% and the inhibition at 0.1 µM was 9%.
Taken in the same sequence, the figures for `Cc1c(C)c2c(c(C)c1O)CC(C)(/C=C\CCc1ccccc1)O2` (stereo not shown) [Compound 21] were 100%, 100%, 98% and 21%.
Taken in the same sequence, the figures for `Cc1c(C)c2c(c(C)c1O)CC(C)(CCCCc1ccccc1)O2` (stereo not shown) [Compound 23] were 100%, 100%, 92% and 19%.
Taken in the same sequence, the figures for `COc1ccc(/C=C\C2(C)Cc3c(C)c(O)c(C)c(C)c3O2)cc1` (stereo not shown) [Compound 24] were 100%, 99%, 98% and 13%.
Take `COc1ccc(CCC2(C)Cc3c(C)c(O)c(C)c(C)c3O2)cc1` (stereo not shown) [Compound 26]: on 12-Lipoxygenase, the inhibition at 100 µM worked out at 100%, the inhibition at 10 µM was 99% and the inhibition at 1 µM was 28%.
As for `COc1cccc(/C=C\C2(C)Cc3c(C)c(O)c(C)c(C)c3O2)c1` (stereo not shown) [Compound 27], at 12-Lipoxygenase, the inhibition at 100 µM was determined as 100%, the inhibition at 10 µM came out at 100%, the inhibition at 1 µM amounted to 99% and the inhibition at 0.1 µM came out at 19%.
For the compound `COc1cccc(CCC2(C)Cc3c(C)c(O)c(C)c(C)c3O2)c1` (stereo not shown) [Compound 29], on 12-Lipoxygenase, the inhibition at 100 µM is 100%, the inhibition at 10 µM is 99%, the inhibition at 1 µM stood at 58% and the inhibition at 0.1 µM was found to be 7%.
With `Cc1c(C)c2c(c(C)c1O)CC(C)(/C=C\c1ccc(F)cc1)O2` (stereo not shown) [Compound 30], on 12-Lipoxygenase, the inhibition at 100 µM is 100%, the inhibition at 10 µM turned out to be 100%, the inhibition at 1 µM came out at 98% and the inhibition at 0.1 µM was 21%.
Turning to `Cc1c(C)c2c(c(C)c1O)CC(C)(CCc1ccc(F)cc1)O2` (stereo not shown) [Compound 32], at 12-Lipoxygenase, the inhibition at 100 µM came out at 99%, the inhibition at 10 µM is 99%, the inhibition at 1 µM came out at 45% and the inhibition at 0.1 µM was determined as 2%.
In the case of `Cc1ccc(/C=C\C2(C)Cc3c(C)c(O)c(C)c(C)c3O2)cc1` (stereo not shown) [Compound 33], on 12-Lipoxygenase, the inhibition at 100 µM came out at 100%, the inhibition at 10 µM amounted to 100%, the inhibition at 1 µM amounted to 28% and the inhibition at 0.1 µM came to 2%.
Take `Cc1ccc(CCC2(C)Cc3c(C)c(O)c(C)c(C)c3O2)cc1` (stereo not shown) [Compound 35]: on 12-Lipoxygenase, the inhibition at 100 µM was found to be 99%, the inhibition at 10 µM worked out at 99%, the inhibition at 1 µM stood at 49% and the inhibition at 0.1 µM amounted to 8%.
Turning to `CCC/C=C\C1(C)Cc2c(C)c(O)c(C)c(C)c2O1` (stereo not shown) [Compound 36], on 12-Lipoxygenase, the inhibition at 100 µM is 100%, the inhibition at 10 µM is 100%, the inhibition at 1 µM stood at 100% and the inhibition at 0.1 µM stood at 97%.
Regarding `CCCCCC1(C)Cc2c(C)c(O)c(C)c(C)c2O1` (stereo not shown) [Compound 37], on 12-Lipoxygenase, the inhibition at 100 µM was 100%, the inhibition at 10 µM was determined as 100%, the inhibition at 1 µM amounted to 31% and the inhibition at 0.1 µM was 2%.
On to `CCCCCCC/C=C\C1(C)Cc2c(C)c(O)c(C)c(C)c2O1` (stereo not shown) [Compound 38], for which, on 12-Lipoxygenase, the inhibition at 100 µM was found to be 99%, the inhibition at 10 µM was 99%, the inhibition at 1 µM came out at 90% and the inhibition at 0.1 µM stood at 3%.
For `CCCCCCCCCC1(C)Cc2c(C)c(O)c(C)c(C)c2O1` (stereo not shown) [Compound 39], on 12-Lipoxygenase, the inhibition at 100 µM turned out to be 100%, the inhibition at 10 µM was determined as 100% and the inhibition at 1 µM is 32%.
As for `CCCCCCCCCCC/C=C\C1(C)Cc2c(C)c(O)c(C)c(C)c2O1` (stereo not shown) [Compound 40], on 12-Lipoxygenase, the inhibition at 100 µM was 99%, the inhibition at 10 µM turned out to be 96%, the inhibition at 1 µM was found to be 48% and the inhibition at 0.1 µM is 6%.
Consider `CCCCCCCCCCCCCC1(C)Cc2c(C)c(O)c(C)c(C)c2O1` (stereo not shown) [Compound 41], for which, on 12-Lipoxygenase, the inhibition at 100 µM came out at 99%, the inhibition at 10 µM was 74%, the inhibition at 1 µM amounted to 20% and the inhibition at 0.1 µM worked out at 9%.
